Experimental data: ChEMBL document CHEMBL1201862, “PubChem BioAssay data set” (2004)
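Five concentrations, 48 hours, 96-well plates. GI50 is the concentration that inhibits growth by half.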 Activity calls are given as the source filed them. No stated cut-off is given here; in the data, active = GI50 up to about 1.1 µM and inactive = higher.

What was measured:
Test in all cases: NCI anticancer screen, dose series, 48 h
[1] = tested on: HCC 2998
[2] = tested on: SF-539
[3] = tested on: PC-3
[4] = tested on: SK-MEL-28
[5] = tested on: MCF7
[6] = tested on: TK-10
[7] = tested on: OVCAR-3
[8] = tested on: NCI/ADR-RES
[9] = tested on: RXF 393
[10] = tested on: UACC-257
[11] = tested on: CAKI-1
[12] = tested on: OVCAR-5
[13] = tested on: SR
[14] = tested on: HCT-116
[15] = tested on: HOP-92
[16] = tested on: OVCAR-4
[17] = tested on: Hs-578T
[18] = tested on: EKVX
[19] = tested on: A498
[20] = tested on: NCI-H226

Measured: GI50

CC(=O)OCC1OC(n2c3c(c(-c4ccco4)c(C#N)c2=S)CCC3)C(OC(C)=O)C(OC(C)=O)C1OC(C)=O (stereo not drawn)
inactive: [1] > 100 µM | [2] > 100 µM | [3] 49.7 µM | [4] > 100 µM | [5] 63.8 µM | [6] 69.3 µM | [7] > 100 µM | [8] 37.8 µM | [9] 20.2 µM | [10] > 100 µM | [11] 55.1 µM | [12] > 100 µM | [13] 31.6 µM | [14] > 100 µM | [15] 15.6 µM | [16] 56.8 µM | [17] 40.9 µM

C[Si](C)(C)/C=C/CN1C(=O)CCC1=O
inactive: [1] > 100 µM | [18] > 100 µM | [2] > 100 µM | [4] > 100 µM | [6] > 100 µM | [19] > 100 µM | [7] > 100 µM | [12] > 100 µM | [13] > 100 µM | [14] > 100 µM | [15] > 100 µM

COc1ccc2nc3cc(Cl)ccc3c(Sc3ccc(N)cc3)c2c1
inactive: [1] 12.2 µM | [18] 11.7 µM | [2] 13.9 µM | [20] 18.5 µM | [4] 14.9 µM | [6] 13.2 µM | [19] 29.1 µM | [7] 9.57 µM | [9] 11.7 µM | [10] 13.2 µM | [11] 12.9 µM | [12] 19.8 µM | [13] 2.62 µM | [14] 4.78 µM | [15] 24.4 µM | [16] 15.5 µM

COc1c(Br)cc(CC(N)=O)c(O)c1Br
inactive: [1] > 100 µM | [18] > 100 µM | [2] > 100 µM | [20] > 100 µM | [4] > 100 µM | [6] > 100 µM | [19] > 100 µM | [7] > 100 µM | [9] > 100 µM | [10] > 100 µM | [11] > 100 µM | [12] > 100 µM | [13] > 100 µM | [14] > 100 µM | [15] > 100 µM | [16] > 100 µM

Cc1cc(C)n(C(=C(C(Cl)=C(Cl)Cl)[N+](=O)[O-])n2nc(C)cc2C)n1
inactive: [1] 3.19 µM | [18] 2.58 µM | [2] 4.59 µM | [20] 5.66 µM | [3] 4.43 µM | [4] 6.17 µM | [5] 2.55 µM | [6] 3.39 µM | [19] 2.86 µM | [7] 3.08 µM | [8] 3.78 µM | [9] 3.79 µM | [10] 3.24 µM | [11] 3.23 µM | [12] 7.93 µM | [14] 3.65 µM | [15] 2.72 µM | [16] 3.59 µM | [17] 4.66 µM

CN(/N=C1\C(=O)Nc2ccccc21)c1ccccc1
inactive: [1] > 100 µM | [18] 29.8 µM | [2] 41.2 µM | [20] > 100 µM | [3] 45.4 µM | [4] > 100 µM | [5] 15.3 µM | [6] 69.2 µM | [19] > 100 µM | [7] 33.7 µM | [10] > 100 µM | [11] 22.1 µM | [12] 45.6 µM | [13] 94 µM | [14] 57.8 µM | [15] 22.5 µM | [16] 95.3 µM | [17] 29.6 µM

CN(C)CCCn1c(-c2cc(C(C)(C)C)c(O)c(C(C)(C)C)c2)cs/c1=N\c1ccccc1
inactive: [1] 1.85 µM | [18] 2.16 µM | [2] 1.75 µM | [20] 1.98 µM | [3] 1.87 µM | [4] 2.39 µM | [6] 1.95 µM | [19] 1.94 µM | [7] 1.61 µM | [8] 1.79 µM | [9] 2.17 µM | [10] 1.47 µM | [11] 17.8 µM | [12] 2.23 µM | [15] 2.26 µM | [16] 2.09 µM

COc1cc(C2C(C(=O)O)=C(CO)Oc3cc4c(cc32)OCO4)cc(OC)c1O (stereo not drawn)
inactive: [18] > 100 µM | [2] > 100 µM | [4] > 100 µM | [6] > 100 µM | [7] > 100 µM | [10] > 100 µM | [11] > 100 µM | [14] > 100 µM | [15] > 100 µM | [16] > 100 µM

Cc1cnc(/N=c2\sc(C)cn2-c2ncc(C)s2)s1
inactive: [1] > 100 µM | [18] > 100 µM | [2] > 100 µM | [20] > 100 µM | [3] > 100 µM | [4] > 100 µM | [5] > 100 µM | [6] > 100 µM | [7] > 100 µM | [8] > 100 µM | [9] > 100 µM | [10] > 100 µM | [12] > 100 µM | [13] > 100 µM | [14] > 100 µM | [15] > 100 µM | [16] > 100 µM | [17] > 100 µM

O=c1[nH]c(=O)n(C2CC(O)C(CO)O2)cc1C(OCC(F)(F)F)OCC(F)(F)F (stereo not drawn)
inactive: [1] > 100 µM | [18] > 100 µM | [2] > 100 µM | [4] > 100 µM | [6] > 100 µM | [19] > 100 µM | [7] > 100 µM | [9] > 100 µM | [10] > 100 µM | [11] > 100 µM | [12] > 100 µM | [15] > 100 µM | [16] > 100 µM

O=C(NN1C(=O)CS(=O)(=O)C1c1ccc(Cl)c(Cl)c1)c1ccncc1 (stereo not drawn)
inactive: [1] > 100 µM | [18] > 74 µM | [2] > 100 µM | [20] > 100 µM | [4] > 100 µM | [5] 98.2 µM | [19] > 90.4 µM | [7] > 90.8 µM | [8] > 92.7 µM | [9] > 69 µM | [10] > 100 µM | [11] > 100 µM | [12] > 62.2 µM | [14] > 87.7 µM | [15] > 100 µM | [16] > 100 µM

CN(C)C(=S)/N=c1\ssc(=S)n1C
inactive: [1] > 100 µM | [18] > 100 µM | [2] > 100 µM | [20] > 100 µM | [4] > 100 µM | [6] > 100 µM | [19] > 100 µM | [9] > 100 µM | [10] > 100 µM | [11] > 100 µM | [12] > 100 µM | [13] > 100 µM | [14] > 100 µM | [15] > 100 µM | [16] > 100 µM

CC1(C)OP23(NC(=O)OC2(C(F)(F)F)c2ccccc2O3)OC1(C)C (stereo not drawn)
inactive: [2] > 100 µM | [20] > 100 µM | [4] > 100 µM | [6] > 100 µM | [7] > 100 µM | [9] > 100 µM | [10] > 100 µM | [14] > 100 µM | [16] > 100 µM

Cc1ccc(Nc2nc3ccccc3nc2NS(=O)(=O)c2ccc(N)cc2)cc1
inactive: [1] 3.64 µM | [18] > 100 µM | [2] 39.4 µM | [20] 78.7 µM | [3] 41.8 µM | [4] 33.4 µM | [5] 45.2 µM | [6] 45.9 µM | [7] 65 µM | [8] 61.8 µM | [9] 30.8 µM | [10] > 100 µM | [11] 59.2 µM | [12] > 100 µM | [13] 20.7 µM | [14] 37.3 µM | [15] 95.9 µM | [16] 19.3 µM | [17] 65.5 µM

CN(C)CCNC(=O)c1cccc2ccc(-c3ccc(F)cc3)nc12
inactive: [1] 6.46 µM | [2] 4.06 µM | [20] 3.53 µM | [4] 7.06 µM | [5] 3.56 µM | [19] 7.1 µM | [7] 6.89 µM | [8] 3.18 µM | [9] 7.38 µM | [10] 5.51 µM | [11] 2.69 µM | [12] 7.55 µM | [14] 3.03 µM | [15] 4.25 µM | [16] 4.38 µM

CC(=O)OC(OC(C)=O)n1cc(C=O)c2ccccc21
inactive: [1] > 100 µM | [20] > 100 µM | [3] > 100 µM | [4] > 100 µM | [5] 25.9 µM | [6] > 100 µM | [19] 36.7 µM | [7] > 100 µM | [8] > 100 µM | [10] > 100 µM | [11] > 100 µM | [12] > 100 µM | [13] > 100 µM | [14] > 100 µM | [16] > 100 µM | [17] > 100 µM

O=C(O)C12CCCCC1CCCC2 (stereo not drawn)
inactive: [1] > 100 µM | [18] > 100 µM | [2] > 100 µM | [20] > 100 µM | [4] > 100 µM | [6] > 100 µM | [19] > 100 µM | [7] > 100 µM | [11] > 100 µM | [12] > 100 µM | [14] > 100 µM | [15] > 100 µM | [16] > 100 µM

C[N+](C)([O-])CCOc1cc2c(c3ccccc13)-c1ccccc1C2=O
inactive: [1] 13.7 µM | [18] 25.9 µM | [2] 15.1 µM | [20] 15.7 µM | [4] 18.3 µM | [5] 11.7 µM | [19] 20.3 µM | [7] 11.7 µM | [8] 14.3 µM | [9] 17.7 µM | [10] 6.65 µM | [11] 21.5 µM | [12] 24 µM | [14] 6.25 µM | [15] 7.66 µM | [16] 3.92 µM
